Measurements published in PMC10728849, “Solubility of Some Drugs in Aqueous Solutions of Choline Chloride-Based Deep Eutectic Solvent Systems: Experimental Data, Modeling, and the Impact of Solution pH” (Iranian Journal of Pharmaceutical Research : IJPR, 2023).
Values after ≈ are worked out from the molar mass of the structure shown. Marks after values point to notes of the source that are not given here.

Key:
[1] = Solubility measurement by shake flask method (UV spectrophotometry); conditions: for SChCl-G50%/ SChCl-G10% / SChCl-U50%/ SChCl-U10%: solubility ratio in DES50% to DES10%; for SChCl-G50%/ SChCl-G10%: ChCl-G; for SChCl-U50%/ SChCl-U10%: ChCl-U; for solubility at 48 h: 37 °C, thermodynamic from solid, 37 ± 1°C
Protocol: A DES composed of ChCl + G/U was selected for this study. It was prepared based on a previously reported method in the literature ([13], [14]). First, the components of DESs, including ChCl as a hydrogen bond acceptor (HBA) and G/U as a hydrogen bond donor (HBD), were weighed using an analytical balance (ATX224, Shimadzu, Japan) with 1×10^-4 g precision at a specific mole fraction of 1:2, respectively. The measured amounts of these compositions were added into a beaker and sealed firmly with Parafilm. Then, it was heated at 70°C while stirring at 550 rpm for 60 minutes until a clear and uniform liquid was formed. At the end of the synthesis process of DES, the prepared liquids were cooled and used as a new class of cosolvents for drug solubilization.
Many different techniques of solubility measurements have been reported in the literature. The shake flask is a popular and convenient method for solubility determination ([21]), which was applied in this study. First, solvent mixtures were made by weighing 10:90% and 50:50% mass fractions of DES: water, respectively. Excess amounts of poorly soluble drugs were added into glass vials containing 4 g prepared solvent mixtures. All of the vials were shaken on a shaker (Heidolph, Schwabach, Germany) and placed in an incubator (Kimia Idea Pardaz Azarbaijan (KIPA) co., Tabriz, Iran) at 37 ± 1°C and 180 rpm for 48 hours. […] The saturated solutions were centrifuged at 6000 rpm for 15 minutes (Tomy Micro One, Tokyo, Japan) and filtered in some cases (Filter Bioscience Membrane Technology Co., 0.22 µm). […] Finally, the absorbance of each solution was converted to concentration using the calibration curves, taking into account the dilution factor. The solubility of each drug was then calculated. Solubilities were determined three times in all cases, and the mean ± standard deviation of data was reported.

[2] = design: method as in doi:10.1016/j.molliq.2018.07.065; conditions: cited from earlier work
[3] = cited from earlier work
[4] = pH of saturated solutions (final pH of dissolution medium); assay type: physicochemical
Text: Acidic and basic compounds can change the pH of the dissolution medium in water.

[5] = aqueous with cosolvent or surfactant or cyclodextrin, Water+ ChCl-G50%, 50:50% mass fraction choline chloride-glycerol (1:2) DES:water
[6] = pH 7.5, aqueous with cosolvent or surfactant or cyclodextrin, Water + ChCl-U10%, 10:90% mass fraction choline chloride-urea (1:2) DES:water
[7] = pH 8.3, aqueous with cosolvent or surfactant or cyclodextrin, Water+ ChCl-U50%, 50:50% mass fraction choline chloride-urea (1:2) DES:water
[8] = aqueous with cosolvent or surfactant or cyclodextrin, Water + ChCl-G10%, 10:90% mass fraction choline chloride-glycerol (1:2) DES:water

SChCl-G50%/ SChCl-G10% [1]	SChCl-U50%/ SChCl-U10% [1]	solubility at 48 h [1, 5] [µg/mL]	solubility at 48 h [1, 6] [µg/mL]	solubility at 48 h [1, 7] [µg/mL]	solubility at 48 h [1, 8] [µg/mL]	pH of saturated solution ([4]; in ChCl-U10%)	pH of saturated solution ([4]; in ChCl-U50%)	pH of saturated solution ([4]; in water)	SMILES	Solubility, Water [2]	pKa [3]
4.52	4.41	2285 ± 18 (≈ 8920 µM)	482 ± 15	2126 ± 16 (≈ 8300 µM)	506 ± 17	–	–	–	Nc1nnc(-c2cccc(Cl)c2Cl)c(N)n1 [Lamotrigine, lamotrigine]	0.342 ± 0.0161 ^a g/L	–
4.24	7.25	255 ± 20 (≈ 1010 µM)	104 ± 8	753 ± 60 (≈ 2980 µM)	60 ± 5	–	–	–	O=C1NC(=O)C(c2ccccc2)(c2ccccc2)N1 [Phenytoin, phenytoin]	0.056 ± 0.0053 ^a g/L	–
1.28	3.63	40 ± 1 (≈ 121 µM)	571 ± 35	2070 ± 36 (≈ 6250 µM)	32 ± 2	6.1	6.2	5.6	CN1C(C(=O)Nc2ccccn2)=C(O)c2ccccc2S1(=O)=O [Piroxicam, piroxicam]	0.032 ± 0.0014 ^a g/L	–
1.80	3.29	12700 ± 265 (≈ 92200 µM)	9840 ± 555	32400 ± 671 (≈ 234000 µM)	7060 ± 422	–	–	–	O=C(O)c1ccccc1O [Salicylic acid, salicylic acid]	2.755 ± 0.3031 ^a g/L	–
5.25	8.42	91 ± 6 (≈ 234 µM)	18 ± 2	151 ± 10 (≈ 388 µM)	17 ± 2	–	–	–	CN1CC(=O)N2[C@H](c3ccc4c(c3)OCO4)c3[nH]c4ccccc4c3C[C@@H]2C1=O [Tadalafil, tadalafil]	0.016 ± 0.0019 ^a g/L	–

Second part, the molecule before the results:

SMILES	SChCl-G50%/ SChCl-G10% [1]	SChCl-U50%/ SChCl-U10% [1]	solubility at 48 h [1, 5] [µg/mL]	solubility at 48 h [1, 6] [µg/mL]	solubility at 48 h [1, 7] [µg/mL]	solubility at 48 h [1, 8] [µg/mL]	pH of saturated solution ([4]; in ChCl-U10%)	pH of saturated solution ([4]; in ChCl-U50%)	pH of saturated solution ([4]; in water)	Solubility, Water [2]	pKa [3]
CC(C)NCC(O)COc1ccc(CC(N)=O)cc1 (stereo not drawn) [Atenolol, atenolol]	1.03	1.05	–	–	–	–	–	–	–	–	–
O=C(O)c1ccccc1 [Benzoic acid, benzoic acid]	1.76	3.16	–	–	–	–	–	–	–	–	–
NC(=O)N1c2ccccc2C=Cc2ccccc21 [Carbamazepine, carbamazepine]	8.54	8.48	2730 ± 230 (≈ 11600 µM)	463 ± 10	3930 ± 344 (≈ 16600 µM)	–	–	–	–	0.296 ± 0.0139 ^a g/L	–
COc1ccccc1OCCNCC(O)COc1cccc2[nH]c3ccccc3c12 (stereo not drawn) [Carvedilol, carvedilol]	5.48	6.79	873 ± 27 (≈ 2150 µM)	91 ± 7	620 ± 20 (≈ 1530 µM)	159 ± 12	–	–	–	0.032 ± 0.0030 ^a g/L	–
O=C(O)CO [Glycolic acid]	–	–	–	–	–	–	–	–	–	–	3.6
CC(C)Cc1ccc(C(C)C(=O)O)cc1 (stereo not drawn) [Ibuprofen]	–	–	242 ± 4 (≈ 1170 µM)	1300 ± 263	3890 ± 622 (≈ 18900 µM)	141 ± 8	4.5	4.9	6.4	0.104 ± 0.0035 ^a g/L	–
CC(=O)N1CCN(c2ccc(OCC3COC(Cn4ccnc4)(c4ccc(Cl)cc4Cl)O3)cc2)CC1 (stereo not drawn) [Ketoconazole, ketoconazole]	2.16	2.24	77 ± 7 (≈ 145 µM)	28 ± 1	62 ± 6 (≈ 117 µM)	35 ± 1	–	–	–	0.008 ± 0.0008 ^a g/L	–
c1ccc2c(c1)Nc1ccccc1S2 [Phenothiazine, phenothiazine]	18.06	5.83	99 ± 10 (≈ 497 µM)	23 ± 0.3	135 ± 15 (≈ 677 µM)	5	–	–	–	0.003 ± 0.0004 ^a g/L	–
